Source: paper PMC7617869, “Molecular glues that inhibit deubiquitylase activity and inflammatory signaling” (Nature Structural & Molecular Biology, 2025)
Several values for one entry are separate records, joined by “and”; a condition that tells them apart may be missing. Equal values may be shown once.

How the values were obtained:
[1] = tested on: IFNAR1 surface levels in THP-1 cells; experiment: THP-1 IFNAR1 surface levels (FACS); type: cell-based, human
Protocol: THP-1 in vitro experiments
THP-1-DualTM cells (InvivoGen), derived from a human monocytic cell line, isolated from a patient with acute monocytic leukaemia, were cultured as per manufacturer’s guidance. Cells were seeded at 1x10^6 cells/mL in RPMI1640 media containing 10% fetal bovine serum (FBS), 1% penicillin-streptomycin (PS) (Gibco Laboratories) with DMSO (0.1%) (control) or in media containing JMS-175- […]
ng/mL) (Merck Life Science), ODN 2216 (1 µM) (Miltenyi Biotec), or Poly:IC (1 µg/mL) (InvivoGen).
Tofacitinib (Cambridge Biosciences) at 0.4 µM was used for comparison against a known JAK inhibitor.
Cells were centrifuged at 300 g for 5 minutes. Supernatant was removed and subjected to simultaneous study of the NF -κB pathway, by monitoring the activity of secreted alkaline phosphatase reporter (SEAP), and the IRF pathway, by assessing the activity o f a secreted Lucia luciferase using QUANTI - Blue ™ Solution and QUANTI -Luc™ 4 Lucia/Gaussia (InvivoGen), respectively, as per manufacturer’s instructions. Pelleted cells were used for FACS analysis using IFNα/β R1 APC-conjugated antibody or isotype control (Biotechne, FAB245A and IC002A), or unstained staining procedure with and without Zombie GreenTM (Biolegend). Samples were analysed using CytoFlex LX (Beckman) (50,000 live cells per condition). Median fluorescence intensity for APC channel gated on single cell live cells was analysed and compared as a percentage to control (no stimulation condition). […]

[2] = tested on: ISG expression in SSc PBMCs; experiment: SSc PBMC type I IFN signaling gene expression array, unstimulated; type: cell-based, human; settings: unstimulated PBMCs from SSc patients; one value per patient (P1-P9)
Protocol: PBMCs in vitro experiments
Peripheral blood mononuclear cells (PBMCs) from healthy and SSc donors were separated using density gradient method (Leucosep™, Greiner Bio-One International) from EDTA anticoagulated peripheral blood; isolated cells were washed twice by PBS. PBMCs were then incubated in RPMI1640 […]
For healthy PBMCs, cells were stimulated with 20 ng/mL of IFN (+/- compounds or DMSO). For SSc PBMCs, cells were in basal conditions with no additional IFN stimulation. Cells were centrifuged at 300 g for 10 minutes. […]
RNA was extracted from cell pellets using TRIzol™ (ThermoFisher
Scientific, Waltham, MA) and processed using Quick-RNA Miniprep Kit (Zymo Research) as per the manufacturer’s instruction.
For Type I IFN signalling analysis, the human IFN I RT2 Profiler PCR Array (Qiagen, PAMM-016ZE) was performed on available RNA from healthy (n=3) and SSc (n=9) donors. RNA was converted to cDNA using RT2 First Strand Kit (Qiagen). Next, the cDNA was mixed with RT2 SYBR Green Mastermix (Qiagen, Venlo). Successful PCR performance was confirmed by assay tests for genomic DNA contamination, RNA sample quality, as well as single melt curve determination and <35 Ct for each gene, leading to validated gene expression of 67 genes. Relative expression for each gene was determined, firstly by ∆CT calculated using the geometric mean of 4 housekeeping genes (ACTB, GAPDH, HPRT1, RPLP0), followed by 2^(-∆CT), and expressed as fold change to control, according to manufacturer’s guidance. IFN2α-induced ISGs in healthy donors were determined using a Student’s t-test (two-tail distribution and equal variances) on the triplicate fold change in 2^(-ΔCT) values between […]
donors). Heatmaps were generated using the “pheatmap” function in R (v4.0.2) and RStudio (v1.3.1093) applying row scaling to standardise the expression data across samples (R core team 2020.
R Foundation for Statistical Computing). The IFN2α inducible genes determined in healthy donors […]
171-C. To account for Type I IFN signalling heterogeneity across samples, the mean 2^(-∆CT) for each […]
relative gene expression, illustrated as a fold change and visualised in log2. The Type I IFN signalling array data for the patient samples is included in Source Data Figure 6, Extended Data Fig. 9.

Cn1cc(NC(=O)c2c(Cl)cccc2Cl)c(C(=O)NC2CCN(C(=O)c3c(Cl)cccc3Cl)CC2)n1 [AP-5-145]
IFNAR1 surface levels (Fig. 5h) ([1]; IFN + compound, No IFN = 100): 65.8984 and 82.4668 and 66.4812 | IFNAR1 surface levels ([1]; THP-1, hIFNα2 25 ng/ml, 4 μM, 16 h): no significant reduction | ADAR, Type I IFN signalling array raw data [2]: 3.585 and 4.485 and 4.334 and 4.353 and 5.313 and 4.699 and 4.415 and 5.111 and 3.559 | BST2, Type I IFN signalling array raw data [2]: 3.184 and 2.458 and 3.302 and 3.672 and 2.309 and 1.595 and 4.59 and 3.685 and 1.654 | CASP1, Type I IFN signalling array raw data [2]: 1.628 and 0.9815 and 2.95 and 3.664 and 1.948 and 2.361 and 2.033 and 2.206 and 1.183 | CD86, Type I IFN signalling array raw data [2]: 4.785 and 2.783 and 4.5852 and 3.1897 and 4.314 and 3.552 and 4.0343 and 4.013 and 3.55 | CXCL10, Type I IFN signalling array raw data [2]: 2.8643 and 6.708 and 5.453 and 2.734 and 4.396 and 4.529 and 5.68 and 6.078 and 3.688 | DDX58, Type I IFN signalling array raw data [2]: 2.4595 and 2.543 and 3.026 and 3.209 and 2.763 and 1.787 and 3.543 and 4.173 and 1.175 | GBP1, Type I IFN signalling array raw data [2]: 0.1474 and 2.145 and 2.622 and 1.459 and 0.8545 and 1.754 and 2.939 and 2.1766 and -0.4621 | IFI6, Type I IFN signalling array raw data [2]: 2.465 and 2.227 and 2.936 and 2.73 and 1.772 and 0.8033 and 3.207 and 3.6638 and 1.0872 | IFI16, Type I IFN signalling array raw data [2]: 1.83 and 1.644 and 2.049 and 2.362 and 1.331 and 1.292 and 2.492 and 2.951 and 1.1658 | IFIH1, Type I IFN signalling array raw data [2]: 3.174 and 3.642 and 3.693 and 3.986 and 3.429 and 3.042 and 4.0109 and 5.193 and 2.582 | IFIT1, Type I IFN signalling array raw data [2]: 4.24 and 3.643 and 3.989 and 4.293 and 2.488 and 1.397 and 4.575 and 7.138 and 1.6699 | IFIT2, Type I IFN signalling array raw data [2]: 3.353 and 3.202 and 2.7801 and 3.719 and 2.327 and 0.07597 and 4.728 and 5.592 and 0.851 | IFIT3, Type I IFN signalling array raw data [2]: 2.463 and 3.281 and 3.064 and 3.575 and 3.043 and 1.248 and 5.135 and 5.476 and 1.263 | IFITM1, Type I IFN signalling array raw data [2]: -0.2471 and 0.1243 and 0.2716 and 1.178 and 0.8183 and 0.3168 and 1.196 and 1.705 and -0.8285 | IFITM2, Type I IFN signalling array raw data [2]: 3.999 and 3.471 and 4.22 and 5.1798 and 5.262 and 5.108 and 4.673 and 5.09 and 4.191 | IFITM3, Type I IFN signalling array raw data [2]: 3.006 and 2.32 and 3.244 and 3.786 and 1.434 and -0.1662 and 3.42 and 4.49 and -0.2026 | IRF1, Type I IFN signalling array raw data [2]: 1.06 and 1.224 and 2.232 and 2.144 and 1.15 and 2.067 and 2.585 and 1.973 and 0.5242 | IRF7, Type I IFN signalling array raw data [2]: 5.407 and 5.206 and 4.576 and 6.178 and 4.455 and 3.933 and 5.89 and 5.935 and 9.933 | IRF9, Type I IFN signalling array raw data [2]: 2.066 and 2.065 and 2.241 and 2.2692 and 1.294 and 1.106 and 2.973 and 2.809 and 0.8366 | ISG15, Type I IFN signalling array raw data [2]: 2.596 and 6.312 and 3.3545 and 3.693 and 0.9621 and 0.3667 and 4.1244 and 6.015 and 0.1079 | ISG20, Type I IFN signalling array raw data [2]: 2.432 and 2.479 and 2.547 and 3.375 and 2.843 and 3.174 and 3.393 and 3.464 and 1.322 | MX1, Type I IFN signalling array raw data [2]: 4.424 and 4.226 and 3.58 and 4.634 and 2.28 and 2.399 and 4.395 and 5.558 and 2.679 | MX2, Type I IFN signalling array raw data [2]: 4.173 and 3.658 and 2.952 and 4.357 and 2.358 and 2.074 and 3.745 and 4.851 and 2.355 | MYD88, Type I IFN signalling array raw data [2]: 3.563 and 2.295 and 2.992 and 3.3169 and 2.321 and 1.993 and 3.136 and 2.869 and 2.18 | NMI, Type I IFN signalling array raw data [2]: 1.73 and 1.406 and 2.205 and 1.958 and 1.878 and 1.724 and 2.633 and 2.762 and 1.099 | OAS1, Type I IFN signalling array raw data [2]: 3.537 and 3.8519 and 3.958 and 4.26 and 2.489 and 2.393 and 5.01 and 4.925 and 2.848 | OAS2, Type I IFN signalling array raw data [2]: 3.256 and 3.665 and 3.696 and 4.93 and 3.216 and 2.622 and 4.725 and 4.971 and 2.257 | PML, Type I IFN signalling array raw data [2]: 3.769 and 4.451 and 4.457 and 4.682 and 3.169 and 3.581 and 5.048 and 5.21 and 2.632 | SOCS1, Type I IFN signalling array raw data [2]: 4.276 and 3.145 and 2.943 and 3.915 and 3.6717 and 2.288 and 4.381 and 4.149 and 1.789 | STAT1, Type I IFN signalling array raw data [2]: -1.171 and 0.5507 and 0.704 and -0.4526 and -0.2783 and 1.689 and 0.5533 and 0.2423 and -1.283 | STAT2, Type I IFN signalling array raw data [2]: 3.543 and 4.373 and 3.597 and 3.344 and 3.627 and 3.236 and 4.148 and 3.986 and 2.129 | STAT3, Type I IFN signalling array raw data [2]: 1.898 and 1.636 and 1.633 and 5.446 and 2.412 and 1.5196 and 2.3996 and 2.61 and 1.33 | TAP1, Type I IFN signalling array raw data [2]: 1.436 and 1.649 and 2.5757 and 2.2546 and 2.075 and 1.836 and 3.734 and 2.309 and 0.9557 | TNFSF10, Type I IFN signalling array raw data [2]: 2.318 and 2.989 and 3.028 and 3.374 and 2.092 and 2.434 and 3.558 and 3.768 and 2.177
